Here are results for two compounds from ChEMBL document CHEMBL1122133, “(+/-)-cis-2-acetoxycyclobutyltrimethylammonium iodide: a semirigid analogue of acetylcholine” (1982).

The species entered for the assay is Cavia porcellus. The assay is described as follows: Evaluated for muscarinic activity using guinea pig ilea. In kind it is functional.

As to `CC(=O)O[C@@H]1CC[C@H]1[N+](C)(C)C.[I-]`, the ID50 came out at 68 nM.
`CC(=O)O[C@H]1CC[C@H]1[N+](C)(C)C.[I-]` gave an ID50 of 83 nM.
